Assays:
[1] = target: T1, Steroid 17-alpha-hydroxylase/17,20 lyase (Macaca fascicularis, UniProt Q2XVA1); assay: In vivo inhibition of CYP17A1 in cynomolgus monkey assessed as fold increase in progesterone level in blood at 1 mg/kg, po measured upto 24 hrs; format: functional, organism-based
T1 sequence (Q2XVA1 whole entry): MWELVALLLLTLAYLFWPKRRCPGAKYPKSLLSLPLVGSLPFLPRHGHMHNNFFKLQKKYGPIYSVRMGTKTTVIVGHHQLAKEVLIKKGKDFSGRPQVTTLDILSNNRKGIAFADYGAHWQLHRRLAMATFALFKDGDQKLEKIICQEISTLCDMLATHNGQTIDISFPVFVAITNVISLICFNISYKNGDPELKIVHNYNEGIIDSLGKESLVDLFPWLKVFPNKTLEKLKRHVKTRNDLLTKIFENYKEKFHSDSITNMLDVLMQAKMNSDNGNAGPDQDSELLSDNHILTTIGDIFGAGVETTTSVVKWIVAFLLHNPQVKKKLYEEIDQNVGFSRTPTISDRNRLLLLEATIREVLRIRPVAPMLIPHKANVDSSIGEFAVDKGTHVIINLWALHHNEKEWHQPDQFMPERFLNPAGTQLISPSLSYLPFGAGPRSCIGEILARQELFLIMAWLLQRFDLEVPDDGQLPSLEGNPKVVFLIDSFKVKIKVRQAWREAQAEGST

[2] = target: T2, Cytochrome P450 3A4 (Homo sapiens, UniProt P08684); assay: Inhibition of recombinant human CYP3A4; format: ADME
[3] = Metabolic stability in dog liver microsomes assessed as parent compound remaining relative to control; format: ADME, Canis lupus familiaris, Microsome
[4] = target: T2, Cytochrome P450 3A4; assay: Induction of recombinant human CYP3A4; format: ADME; settings: recombinant enzyme
[5] = Metabolic stability in dog liver microsome assessed as half-life; format: ADME, Canis lupus familiaris; settings: liver microsomes
[6] = target: Cytochrome P450 2C19 (Homo sapiens, UniProt P33261); assay: Inhibition of recombinant human CYP2C19; format: ADME
[7] = Inhibition of cynomolgus monkey CYP11B1; format: ADME, Macaca fascicularis
[8] = Metabolic stability in mouse liver microsome assessed as half-life; format: ADME; settings: liver microsomes
[9] = target: T1, Steroid 17-alpha-hydroxylase/17,20 lyase; assay: Selectivity ratio of IC50 for inhibition of cynomolgus monkey CYP17A1 hydroxylase activity to IC50 for inhibition of cynomolgus monkey CYP17A1 lyase activity; format: ADME
[10] = target: T3, Cytochrome P450 11B1, mitochondrial (Homo sapiens, UniProt P15538); assay: Inhibition of human CYP11B1; format: ADME
T3 sequence (P15538 whole entry): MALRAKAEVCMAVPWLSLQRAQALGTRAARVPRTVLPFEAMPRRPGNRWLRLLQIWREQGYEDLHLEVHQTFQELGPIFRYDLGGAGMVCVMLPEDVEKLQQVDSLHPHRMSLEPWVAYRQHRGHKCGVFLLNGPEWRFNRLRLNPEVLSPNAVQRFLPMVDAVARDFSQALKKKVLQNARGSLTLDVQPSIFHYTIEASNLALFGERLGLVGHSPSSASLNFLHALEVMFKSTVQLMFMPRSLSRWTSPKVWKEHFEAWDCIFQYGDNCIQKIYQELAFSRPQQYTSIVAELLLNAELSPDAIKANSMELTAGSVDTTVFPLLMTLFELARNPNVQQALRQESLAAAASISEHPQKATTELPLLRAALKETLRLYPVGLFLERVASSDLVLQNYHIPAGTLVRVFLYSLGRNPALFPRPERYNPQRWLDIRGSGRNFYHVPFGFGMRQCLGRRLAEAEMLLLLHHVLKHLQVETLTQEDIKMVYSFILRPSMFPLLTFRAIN

[11] = target: T4, Steroid 17-alpha-hydroxylase/17,20 lyase (Homo sapiens, UniProt P05093); assay: Inhibition of human CYP17A1 lyase activity; format: ADME
T4 sequence (P05093 whole entry): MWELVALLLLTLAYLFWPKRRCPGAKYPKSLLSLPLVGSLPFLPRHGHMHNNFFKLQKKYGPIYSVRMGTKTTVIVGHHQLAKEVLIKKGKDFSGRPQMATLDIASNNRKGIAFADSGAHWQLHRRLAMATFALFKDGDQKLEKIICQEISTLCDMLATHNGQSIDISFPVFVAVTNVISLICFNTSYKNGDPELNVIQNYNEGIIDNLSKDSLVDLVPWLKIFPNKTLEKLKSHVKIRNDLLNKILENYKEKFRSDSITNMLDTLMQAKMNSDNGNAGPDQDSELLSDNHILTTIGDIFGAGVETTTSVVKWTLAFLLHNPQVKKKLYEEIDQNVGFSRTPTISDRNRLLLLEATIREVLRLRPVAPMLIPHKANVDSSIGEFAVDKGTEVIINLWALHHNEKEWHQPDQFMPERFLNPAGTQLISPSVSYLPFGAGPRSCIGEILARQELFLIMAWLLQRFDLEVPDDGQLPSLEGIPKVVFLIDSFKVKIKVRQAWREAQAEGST

[12] = Oral bioavailability in cynomolgus monkey at 1 mg/kg; format: ADME, organism-based, Macaca fascicularis; settings: in vivo
[13] = target: T4, Steroid 17-alpha-hydroxylase/17,20 lyase; assay: Inhibition of human CYP17A1; format: ADME
[14] = Clearance in cynomolgus monkey at 1 mg/kg, iv; format: ADME, organism-based, Macaca fascicularis; settings: in vivo
[15] = Half-life in cynomolgus monkey at 1 mg/kg, iv; format: ADME, organism-based, Macaca fascicularis; settings: in vivo
[16] = Cmax in cynomolgus monkey at 1 mg/kg, po; format: ADME, organism-based, Macaca fascicularis; set-up: dose 1 mg/kg, route po; settings: in vivo
[17] = Metabolic stability in cynomolgus monkey liver microsomes assessed as parent compound remaining relative to control; format: ADME, Macaca fascicularis, Microsome
[18] = target: T4, Steroid 17-alpha-hydroxylase/17,20 lyase; assay: Inhibition of human adrenal gland CYP17A1; format: ADME, tissue-based
[19] = target: T5, Cytochrome P450 1A2 (Homo sapiens, UniProt P05177); assay: Inhibition of recombinant human CYP1A2; format: ADME
T5 sequence (P05177 whole entry): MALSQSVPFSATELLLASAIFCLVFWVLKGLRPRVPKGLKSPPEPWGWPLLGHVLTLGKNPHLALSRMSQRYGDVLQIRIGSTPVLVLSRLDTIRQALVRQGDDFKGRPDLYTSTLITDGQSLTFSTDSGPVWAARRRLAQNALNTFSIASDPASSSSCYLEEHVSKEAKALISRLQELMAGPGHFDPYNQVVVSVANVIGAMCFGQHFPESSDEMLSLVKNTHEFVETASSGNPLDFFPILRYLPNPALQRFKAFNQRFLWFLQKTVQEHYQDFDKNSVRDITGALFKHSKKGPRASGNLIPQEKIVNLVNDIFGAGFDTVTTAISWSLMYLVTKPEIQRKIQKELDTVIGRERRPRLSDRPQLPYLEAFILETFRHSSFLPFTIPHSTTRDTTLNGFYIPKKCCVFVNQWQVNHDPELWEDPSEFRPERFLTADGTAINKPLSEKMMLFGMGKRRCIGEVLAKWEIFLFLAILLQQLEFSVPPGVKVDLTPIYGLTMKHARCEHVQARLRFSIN

T2 sequence (P08684 whole entry): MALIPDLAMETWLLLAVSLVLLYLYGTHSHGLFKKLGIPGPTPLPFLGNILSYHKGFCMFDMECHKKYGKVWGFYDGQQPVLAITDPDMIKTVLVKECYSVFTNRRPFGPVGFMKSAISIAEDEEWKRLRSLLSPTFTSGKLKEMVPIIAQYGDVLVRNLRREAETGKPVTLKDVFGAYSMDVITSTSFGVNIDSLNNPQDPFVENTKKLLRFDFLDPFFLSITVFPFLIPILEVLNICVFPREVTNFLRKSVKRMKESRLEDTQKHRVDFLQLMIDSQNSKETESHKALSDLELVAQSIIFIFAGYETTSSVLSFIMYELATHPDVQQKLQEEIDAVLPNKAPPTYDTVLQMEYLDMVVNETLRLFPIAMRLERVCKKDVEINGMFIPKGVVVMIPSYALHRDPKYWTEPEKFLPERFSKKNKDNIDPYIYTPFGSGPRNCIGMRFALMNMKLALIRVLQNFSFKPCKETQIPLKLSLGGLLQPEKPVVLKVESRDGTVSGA
Sequence of Cytochrome P450 2C19 (P33261 whole entry): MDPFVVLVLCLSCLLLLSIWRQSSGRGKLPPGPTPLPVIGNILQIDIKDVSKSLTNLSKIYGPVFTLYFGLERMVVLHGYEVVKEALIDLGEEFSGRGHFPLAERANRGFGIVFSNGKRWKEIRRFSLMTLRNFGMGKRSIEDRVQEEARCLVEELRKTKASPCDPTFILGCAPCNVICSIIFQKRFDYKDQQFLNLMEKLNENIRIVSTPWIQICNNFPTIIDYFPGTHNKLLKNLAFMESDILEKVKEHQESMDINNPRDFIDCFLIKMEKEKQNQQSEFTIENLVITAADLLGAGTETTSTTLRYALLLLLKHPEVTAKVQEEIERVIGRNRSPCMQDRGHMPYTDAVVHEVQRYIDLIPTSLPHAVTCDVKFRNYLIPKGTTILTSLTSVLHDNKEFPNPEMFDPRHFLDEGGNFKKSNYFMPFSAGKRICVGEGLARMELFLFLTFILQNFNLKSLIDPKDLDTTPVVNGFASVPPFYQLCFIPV

fold change (FC) [1]: 14 | IC50 [2]: 36 µM | Stability [3]: 86% | Activity [4]: Not Active | half-life [5]: 46 min | IC50 [6]: > 40 µM | IC50 [7]: > 10 µM | half-life [8]: 35 min | IC50 [10]: 2610 nM | IC50 [11]: 8 nM | bioavailability [12]: 100% | IC50 [13]: 16 nM | clearance [14]: 2.8 mL/min/kg | half-life [15]: 960 min | Cmax [16]: 1550 nM | Stability [17]: 96% | IC50 [18]: 30 nM | IC50 [19]: > 40 µM
Compound: Nc1ncncc1-c1ccnc2c1cnn2-c1ccc(F)cc1
Ratio IC50 [9]: 5

Reference: ChEMBL document CHEMBL5223109, “The discovery of BMS-737 as a potent, CYP17 lyase-selective inhibitor for the treatment of castration-resistant prostate cancer” (Bioorg Med Chem Lett, 2022)
